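In this assay, cells in 96-well plates receive the compound at five concentrations for 48 hours. Endpoints are linearly interpolated between the surrounding concentrations. GI50: concentration for 50% inhibition of growth. TGI: concentration producing complete growth inhibition.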
Key:
Experiment in all cases: NCI tumour cell line growth inhibition, 48 h
[1] = test system: CAKI-1 renal
[2] = test system: SK-MEL-2 melanoma
[3] = test system: MDA-MB-435
[4] = test system: SW-620 colon
[5] = test system: RPMI-8226 leukemia
[6] = test system: MDA-MB-231 breast
[7] = test system: SF-268 CNS
[8] = test system: HOP-92 NSCLC
[9] = test system: T-47D breast
[10] = test system: A498 renal
[11] = test system: NCI-H460 lung
[12] = test system: DU-145 prostate
[13] = test system: UACC-62 melanoma
[14] = test system: NCI/ADR-RES ovarian
[15] = test system: K-562 leukemia
[16] = test system: PC-3 prostate
[17] = test system: OVCAR-8 ovarian
[18] = test system: U251 CNS
[19] = test system: HCT-116 colon
[20] = test system: HL-60(TB) leukemia
[21] = test system: EKVX NSCLC
[22] = test system: OVCAR-5 ovarian
[23] = test system: SNB-19 CNS
[24] = test system: HCC-2998 colon
[25] = test system: OVCAR-4 ovarian
[26] = test system: UACC-257 melanoma
[27] = test system: SK-OV-3 ovarian
[28] = test system: CCRF-CEM leukemia
[29] = test system: KM12 colon
[30] = test system: HS 578T breast
[31] = test system: HT29 colon
[32] = test system: UO-31 renal
[33] = test system: BT-549 breast
[34] = test system: MALME-3M melanoma
[35] = test system: A549 NSCLC
[36] = test system: IGROV1 ovarian
[37] = test system: NCI-H522 lung
[38] = test system: COLO 205 colon
[39] = test system: MCF7 breast
[40] = test system: NCI-H226 lung
[41] = test system: 786-0 renal
[42] = test system: NCI-H23 lung
[43] = test system: SF-539 CNS
[44] = test system: LOX IMVI melanoma
[45] = test system: SF-295 CNS
[46] = test system: MOLT-4 leukemia
[47] = test system: SNB-75 CNS
[48] = test system: SK-MEL-28 melanoma
[49] = test system: HOP-62 NSCLC
[50] = test system: M14 melanoma
[51] = test system: SK-MEL-5 melanoma
[52] = test system: HCT-15 colon
[53] = test system: SN12C renal
[54] = test system: TK-10 renal
[55] = test system: RXF 393 renal
[56] = test system: ACHN renal

Question: With O=C(/C=C/c1csc(Br)n1)NO as the compound, how does the GI50 [1] read?
Answer: 2.35 µM

Question: And the TGI [1]?
Answer: 7.22 µM

Question: What about the GI50 [2] of the same compound?
Answer: 2.62 µM

Question: What about the TGI [2] of the same compound?
Answer: 7.26 µM

Question: What about the GI50 [3] of the same compound?
Answer: 2.88 µM

Question: What about the TGI [3] of the same compound?
Answer: 15.3 µM

Question: And the GI50 [4]?
Answer: 1.89 µM

Question: What about the TGI [4] of the same compound?
Answer: 5.52 µM

Question: What about the GI50 [5] of the same compound?
Answer: 2.64 µM

Question: And the TGI [5]?
Answer: 18.8 µM

Question: And the GI50 [6]?
Answer: 3.51 µM

Question: What about the TGI [6] of the same compound?
Answer: 21.2 µM

Question: And the GI50 [7]?
Answer: 3.22 µM

Question: What about the TGI [7] of the same compound?
Answer: 9.29 µM

Question: And the GI50 [8]?
Answer: 1.3 µM

Question: And the TGI [8]?
Answer: 3.95 µM

Question: And the GI50 [9]?
Answer: 2.03 µM

Question: What about the TGI [9] of the same compound?
Answer: 5.63 µM

Question: And the GI50 [10]?
Answer: 1.34 µM

Question: What about the TGI [10] of the same compound?
Answer: 3.21 µM

Question: What about the GI50 [11] of the same compound?
Answer: 2.81 µM

Question: What about the TGI [11] of the same compound?
Answer: 41.5 µM

Question: And the GI50 [12]?
Answer: 3.16 µM

Question: What about the TGI [12] of the same compound?
Answer: 23.1 µM

Question: And the GI50 [13]?
Answer: 1.25 µM

Question: What about the TGI [13] of the same compound?
Answer: 3.2 µM

Question: What about the GI50 [14] of the same compound?
Answer: 1.57 µM

Question: And the TGI [14]?
Answer: 8.36 µM

Question: And the GI50 [15]?
Answer: 2.61 µM

Question: What about the TGI [15] of the same compound?
Answer: 15.4 µM

Question: What about the GI50 [16] of the same compound?
Answer: 3.17 µM

Question: And the TGI [16]?
Answer: 17.6 µM

Question: What about the GI50 [17] of the same compound?
Answer: 2.19 µM

Question: What about the TGI [17] of the same compound?
Answer: 8.33 µM

Question: And the GI50 [18]?
Answer: 1.9 µM

Question: And the TGI [18]?
Answer: 4.09 µM

Question: And the GI50 [19]?
Answer: 1.83 µM

Question: And the TGI [19]?
Answer: 4.51 µM

Question: And the GI50 [20]?
Answer: 2.51 µM

Question: And the TGI [20]?
Answer: 6.58 µM

Question: And the GI50 [21]?
Answer: 4.23 µM

Question: What about the TGI [21] of the same compound?
Answer: > 100 µM

Question: What about the GI50 [22] of the same compound?
Answer: 2.25 µM

Question: What about the TGI [22] of the same compound?
Answer: > 100 µM

Question: What about the GI50 [23] of the same compound?
Answer: 3.82 µM

Question: What about the TGI [23] of the same compound?
Answer: 88.4 µM

Question: And the GI50 [24]?
Answer: 3.29 µM

Question: What about the TGI [24] of the same compound?
Answer: 11.6 µM

Question: What about the GI50 [25] of the same compound?
Answer: 6.3 µM

Question: And the TGI [25]?
Answer: > 100 µM

Question: And the GI50 [26]?
Answer: 1.31 µM

Question: What about the TGI [26] of the same compound?
Answer: 4.91 µM

Question: What about the GI50 [27] of the same compound?
Answer: 1.77 µM

Question: What about the TGI [27] of the same compound?
Answer: 5.09 µM

Question: And the GI50 [28]?
Answer: 2.73 µM

Question: And the TGI [28]?
Answer: > 100 µM

Question: And the GI50 [29]?
Answer: 3.61 µM

Question: What about the TGI [29] of the same compound?
Answer: 39.5 µM

Question: And the GI50 [30]?
Answer: 2.05 µM

Question: And the TGI [30]?
Answer: 8.66 µM

Question: What about the GI50 [31] of the same compound?
Answer: 2.31 µM

Question: What about the TGI [31] of the same compound?
Answer: > 100 µM

Question: And the GI50 [32]?
Answer: 1.7 µM

Question: And the TGI [32]?
Answer: 4.16 µM

Question: And the GI50 [33]?
Answer: 3.84 µM

Question: What about the TGI [33] of the same compound?
Answer: 16.5 µM

Question: What about the GI50 [34] of the same compound?
Answer: 1.41 µM

Question: And the TGI [34]?
Answer: 8.29 µM

Question: And the GI50 [35]?
Answer: 2.45 µM

Question: What about the TGI [35] of the same compound?
Answer: 8.4 µM

Question: What about the GI50 [36] of the same compound?
Answer: 2.06 µM

Question: And the TGI [36]?
Answer: 5.25 µM

Question: What about the GI50 [37] of the same compound?
Answer: 2.48 µM

Question: What about the TGI [37] of the same compound?
Answer: 11.2 µM

Question: What about the GI50 [38] of the same compound?
Answer: 1.75 µM

Question: And the TGI [38]?
Answer: 3.36 µM

Question: And the GI50 [39]?
Answer: 3 µM

Question: And the TGI [39]?
Answer: 16.7 µM

Question: What about the GI50 [40] of the same compound?
Answer: 5.22 µM

Question: What about the TGI [40] of the same compound?
Answer: 20 µM

Question: What about the GI50 [41] of the same compound?
Answer: 3.38 µM

Question: What about the TGI [41] of the same compound?
Answer: 34.7 µM

Question: And the GI50 [42]?
Answer: 3.01 µM

Question: And the TGI [42]?
Answer: 10.5 µM

Question: And the GI50 [43]?
Answer: 3.11 µM

Question: And the TGI [43]?
Answer: 14.8 µM

Question: And the GI50 [44]?
Answer: 1.31 µM

Question: What about the TGI [44] of the same compound?
Answer: 2.69 µM

Question: What about the GI50 [45] of the same compound?
Answer: 2.51 µM

Question: And the TGI [45]?
Answer: 6.35 µM

Question: What about the GI50 [46] of the same compound?
Answer: 2.3 µM

Question: What about the TGI [46] of the same compound?
Answer: 10.2 µM

Question: And the GI50 [47]?
Answer: 1.83 µM

Question: What about the TGI [47] of the same compound?
Answer: 21 µM

Question: What about the GI50 [48] of the same compound?
Answer: 3.46 µM

Question: And the TGI [48]?
Answer: > 100 µM

Question: What about the GI50 [49] of the same compound?
Answer: 2.76 µM

Question: What about the TGI [49] of the same compound?
Answer: 11.5 µM

Question: And the GI50 [50]?
Answer: 3.3 µM

Question: And the TGI [50]?
Answer: 17.7 µM

Question: And the GI50 [51]?
Answer: 1.82 µM

Question: What about the TGI [51] of the same compound?
Answer: 3.5 µM

Question: And the GI50 [52]?
Answer: 3.17 µM

Question: What about the TGI [52] of the same compound?
Answer: > 100 µM

Question: What about the GI50 [53] of the same compound?
Answer: 3.84 µM

Question: What about the TGI [53] of the same compound?
Answer: > 100 µM

Question: And the GI50 [54]?
Answer: 1.41 µM

Question: What about the TGI [54] of the same compound?
Answer: 6.18 µM

Question: What about the GI50 [55] of the same compound?
Answer: 1.43 µM

Question: What about the TGI [55] of the same compound?
Answer: 3.65 µM

Question: What about the GI50 [56] of the same compound?
Answer: 2.36 µM

Question: And the TGI [56]?
Answer: 6.99 µM
